This is an account of results in patent US10550114B2, “Kinase inhibitors and their use in cancer therapy” (TECHNISCHE UNIVERSITÄT DORTMUND, priority 2015, dated 2020).

Data set [1] deals with PC3 cells. The data set can be described thus: Western blot in prostate cancer cells. In kind it is cell-based, human. As to conditions: PC3, 24 hours. Here is the method:
(§1) Human ductal breast carcinoma cells (BT474) and human prostate adenocarcinoma cells (PC-3) were purchased from the ATCC (Bethesda, Md., USA) and were cultured in RPMI 1640 medium (Life Technologies, Germany) supplemented with 10% (v/v) fetal calf serum (FCS; Biochrom, Berlin, Germany) and maintained in a humidified incubator at 37° C. and 5% CO2 (C200, Labotect Incubator, Göttingen, Germany).
(§2) BT474 and PC-3 cells were lysed for 10 min at 95° C. in 62.5 mM Tris-HCl (pH 6.8), 2% (w/v) SDS, 10% (v/v) glycerol, 80 mM DTT, and 0.01% (w/v) bromophenol blue (350.000 cells per 100 μL lysis buffer). Proteins were separated by SDS-PAGE and blotted onto PVDF-membranes (Roth, Karlsruhe, Germany) using Fastblot according to manufacturer's manual (B44, Biometra, Goettingen, Germany). After blocking with 5% (w/v) nonfat dry milk membranes were incubated at 4° C. over night with the respective primary antibody (1:20.000 for β-actin, 1:1000 for all other antibodies). After washing, the membranes were incubated for 1 h at room temperature with the secondary antibody (anti-IgG-HRP 1:2000, CST, Frankfurt, Germany) washed again and monitored by chemiluminescence imaging using FUSION Solo (peqlab, Erlangen, Germany) and appropriate ECL Prime Western blotting detection reagent according to the manufacturer's protocol (GE Healthcare/Amersham-Biosciences, Freiburg, Germany). […]

Data set [2] can be described thus: Maximum tolerated dose in mice. As to conditions: RjOrl:SWISS, mouse, in vivo, ip, PBS/PEG200 (60:40).
Data set [3] deals with MAP4K5 (Homo sapiens (Human), UniProt Q9Y4K4). Put plainly: Z'LYTE kinase assay, SelectScreen panel. Type of data set: biochemical. Particulars: 1 μM compound, apparent ATP KM.
Data set [4] relates to BT474 cells. The data set can be described thus: Western blot in breast cancer cells. As to conditions: BT474, 24 hours. In kind it is cell-based, human. Here is the method: as §1, §2
For data set [5], the system named is GIST-T1 cells. The data set can be described thus: Western blot in gastrointestinal stromal tumor cells. Type of data set: cell-based, human. As to conditions: GIST-T1, 24 hours. The procedure: For GIST-T1 cells protein lysates were prepared from cell line monolayers according to standard protocols as described in A. Duensing, F. Medeiros, B. McConarty, N. E. Joseph, D. Panigrahy, S. Singer, C. […] Protein concentrations were determined with the Bio-Rad Protein Assay (Bio-Rad Laboratories, Hercules, Calif.). Electrophoresis and immunoblotting were carried out as described in B. P. Rubin, S. Singer, C. Tsao, A. Duensing, M. L. Lux, R. Ruiz, M. K. Hibbard, C. J. Chen, S. Xiao, D. A. Tuveson, G. D. Demetri, C.
Controls were treated with dimethyl sulfoxide (DMSO).

Data set [6] in a line: Pharmacokinetic profiling in mice (plasma, LC-MS/MS). Particulars: for bioavailability: CD1, mouse, in vivo. The procedure: EDTA was added to plasma in order to prevent blood from coagulation. The compound concentrations in the particular plasma samples were determined by LC-MS/MS, as follows:
Samples and blanks were prepared by adding 2.5 μL blank DMSO and 80 μL of ice-cold acetonitrile containing the internal standard (Griseofulvin, 1 μM) to 20 μl plasma followed by centrifugation at 13000 rpm (4° C.) for 10 min. 65 μL of the supernatant were diluted with 65 μL of LC-MS grade water. Samples were filtered (Millipore MSRLN0450 hydrophil) and subjected to LC-MS measurement. […] 2.5 μL of the corresponding DMSO stock solution were added to 20 μL of blank plasma followed by the addition of 80 μL of ice-cold acetonitrile containing the internal-standard. The samples were centrifuged for 10 min and 4° C. at 13000 rpm. 65 μL of the supernatant were diluted with 65 μL of LC-MS grade water and subjected to LC-MS analysis. A set of 3 different QCs (n=3) was prepared by adding of 2.5 μL DMSO stock solution (5, 0.5 and 0.05 μM) to 20 μL of plasma. Samples were subsequently handled as described above. All samples were analyzed using a Shimadzu LC20ADXR Solvent Delivery Unit, a Shimadzu SIL30ACMP autosampler and a ABSciex Qtrap5500 LC-MS/MS system. Therefore, 2 μL of sample were injected and separated using an Agilent Poroshell C18, 2.7 μm column (2.1 mm×50 mm) at 60° C. starting at 5% of solvent B for 0.3 min followed by a gradient up to 100% of solvent B over 0.6 min (flow rate 1 mL/min) with 0.1% formic acid in water as solvent A and 0.1% formic acid in acetonitrile as solvent B. Data evaluation was performed using Analyst 1.6.2 Software (Sciex).

Data set [7] deals with T1, activated full-length wtAkt1 (Homo sapiens (Human), UniProt P31749). The data set can be described thus: Activity-based (HTRF) assay, manual dilution series. As to conditions: for higher concentration required for half-maximum inhibition of Akt1 versus alkenyl counterpart: 1b vs 1a, 2b vs 2a.
Source text: OriginPro 9.1G software (OriginLab Corporation, Northhampton, Mass.) was used for data analysis and data was fit to a sigmoidal dose-response model using the following four-parameter logistic equation:
(§5) The potential influence of the reactive alkenyl group functioning as a Michael acceptor was further evaluated and the inhibitory potencies further assessed in activity-based studies utilizing activated full-length wtAkt1 (Millipore).
In data set [8] the target is fluorescently labeled full-length Akt1 (Homo sapiens (Human), UniProt P31749, C296S/C310S/C344S/E49C). The data set can be described thus: iFLiK binding analysis. As to conditions: fluorophore-labeled Akt1 200 nM; n.r. = no response up to 100 μM. Here is the method: Afterwards they were cloned into pREN4427-HIS-DEST vector and introduced into a baculovirus using the BacMagic Kit (Calbiochem) in Sf9 cells (Invitrogen). Protein expression, purification and labeling was performed according to standard protocols.
The final concentration of fluorophore-labeled recombinant Akt1 was 200 nM.

The target of data set [9] is T1, activated full-length wtAkt1. The data set can be described thus: Time-dependent activity-based screening. In kind it is biochemical. Particulars: incubation 10, 30, 60 or 300 minutes.
Data set [10] concerns the target Full-length wtAkt1 (Homo sapiens (Human), UniProt P31749). Put plainly: ESI-MS/MS analysis after tryptic digest. In kind it is binding. Particulars: 2-fold molar excess. The procedure: Protoc. […] 3 μL of sample were loaded onto a pre-column cartridge and desalted for 5 min using 0.1% TFA in water as eluent at a flow rate of 30 μL/min. The samples were back-flushed from the pre-column to the nano-HPLC column during the whole analysis. […] During the complete gradient cycle, a typical TOP10 shot-gun proteomics method for the MS and MS/MS analysis was used. […] Biotechnol.

Data set [11] concerns the target T1, activated full-length wtAkt1. Put plainly: Kinetic characterization by determination of kinact/Ki (time-dependent IC50). Type of data set: biochemical. Particulars: incubation 1 to 120 minutes; manual dilution series. Here is the method:
(§3) Time-dependent IC50 measurements were performed with activated full-length Akt1 as described under “Biochemical assays”. Briefly, IC50 values were determined for twelve different incubation times and afterwards plotted versus accordingly. Data was analyzed according to literature procedure as described in B. F. Krippendorff, R. Neuhaus, P. Lienau, A. Reichel, W. Huisinga, J. Biomol. Screen.
(§4) Calculated IC50 values were plotted versus the incubation time and data was fit as described in the literature to determine kinact and Ki as described above.

Data set [12] concerns the target T2, wild-type Akt1 (Homo sapiens (Human), UniProt P31749). The data set can be described thus: ESI-MS of compound-treated Akt1. In kind it is binding. As to conditions: 2 molar equivalents, thirty minutes on ice, vs DMSO control. The procedure:
Purified full-length wtAkt1 was thawed under cold water and diluted to a final concentration of 1 mg/mL in storage buffer (50 mM HEPES, 200 mM NaCl, 10% Glycerol, pH 7.4). […] Following incubation for thirty minutes on ice, the samples were analyzed by ESI-MS using an Agilent 1100 Series HPLC System connected to a ThermoFinnigan LTQ Linear Ion Trap mass spectrometer. […] During the complete experiment, a mass range of 700 to 2000 m/z was scanned and raw data was deconvoluted and analyzed with MagTran and mMass (Version 5.5.0) software.

Data set [13] addresses activated full-length Akt1 (Homo sapiens (Human), UniProt P31749). The data set can be described thus: Kinetic parameters (Ki, kinact), ECHO520 dilution series. In kind it is biochemical. As to conditions: for kinact/KI: ECHO520. The procedure:
as §3, §4

Data set [14] has as its target T2, wild-type Akt1. Put plainly: Activity-based assay, ECHO520 dilution series. Type of data set: biochemical.
Source text: as §5
Data set [15] deals with Akt1_E17K (Homo sapiens (Human), UniProt P31749, E17K). Put plainly: Activity-based assay, ECHO520 dilution series. In kind it is biochemical. As to conditions: mutant Akt1_E17K.
Source text: as §5
Where [16] appears, read: activated full-length wtAkt1, 120 pM, manual dilution series.

SMILES strings stand for the structures. Where two headings read alike, the source gives them in different places.

fluorescently labeled full-length Akt1, sequence (P31749 whole entry E49C/C296S/C310S/C344S): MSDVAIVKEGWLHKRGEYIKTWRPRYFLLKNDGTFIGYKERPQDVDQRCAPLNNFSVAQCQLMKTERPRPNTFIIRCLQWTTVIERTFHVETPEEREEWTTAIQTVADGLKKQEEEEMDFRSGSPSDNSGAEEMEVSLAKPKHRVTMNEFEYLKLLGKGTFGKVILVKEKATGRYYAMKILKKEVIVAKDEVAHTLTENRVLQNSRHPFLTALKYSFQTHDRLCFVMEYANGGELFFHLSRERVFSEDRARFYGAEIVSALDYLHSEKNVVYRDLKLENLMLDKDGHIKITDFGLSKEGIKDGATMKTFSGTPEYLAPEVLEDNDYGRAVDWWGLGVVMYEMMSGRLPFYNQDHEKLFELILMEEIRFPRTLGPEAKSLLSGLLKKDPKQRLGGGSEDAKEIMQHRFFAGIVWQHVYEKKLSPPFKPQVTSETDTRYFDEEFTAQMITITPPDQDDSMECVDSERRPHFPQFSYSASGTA
T2 sequence (P31749 whole entry): as the sequence (P31749 whole entry E49C/C296S/C310S/C344S) above, with C49E, S296C, S310C, S344C counted along it
activated full-length Akt1, sequence (P31749 whole entry): as the sequence (P31749 whole entry E49C/C296S/C310S/C344S) above, with C49E, S296C, S310C, S344C counted along it
T1 sequence (P31749 whole entry): as the sequence (P31749 whole entry E49C/C296S/C310S/C344S) above, with C49E, S296C, S310C, S344C counted along it
Akt1_E17K, sequence (P31749 whole entry E17K): as the sequence (P31749 whole entry E49C/C296S/C310S/C344S) above, with E17K, C49E, S296C, S310C, S344C counted along it
Full-length wtAkt1, sequence (P31749 whole entry): as the sequence (P31749 whole entry E49C/C296S/C310S/C344S) above, with C49E, S296C, S310C, S344C counted along it
MAP4K5, sequence (Q9Y4K4 whole entry): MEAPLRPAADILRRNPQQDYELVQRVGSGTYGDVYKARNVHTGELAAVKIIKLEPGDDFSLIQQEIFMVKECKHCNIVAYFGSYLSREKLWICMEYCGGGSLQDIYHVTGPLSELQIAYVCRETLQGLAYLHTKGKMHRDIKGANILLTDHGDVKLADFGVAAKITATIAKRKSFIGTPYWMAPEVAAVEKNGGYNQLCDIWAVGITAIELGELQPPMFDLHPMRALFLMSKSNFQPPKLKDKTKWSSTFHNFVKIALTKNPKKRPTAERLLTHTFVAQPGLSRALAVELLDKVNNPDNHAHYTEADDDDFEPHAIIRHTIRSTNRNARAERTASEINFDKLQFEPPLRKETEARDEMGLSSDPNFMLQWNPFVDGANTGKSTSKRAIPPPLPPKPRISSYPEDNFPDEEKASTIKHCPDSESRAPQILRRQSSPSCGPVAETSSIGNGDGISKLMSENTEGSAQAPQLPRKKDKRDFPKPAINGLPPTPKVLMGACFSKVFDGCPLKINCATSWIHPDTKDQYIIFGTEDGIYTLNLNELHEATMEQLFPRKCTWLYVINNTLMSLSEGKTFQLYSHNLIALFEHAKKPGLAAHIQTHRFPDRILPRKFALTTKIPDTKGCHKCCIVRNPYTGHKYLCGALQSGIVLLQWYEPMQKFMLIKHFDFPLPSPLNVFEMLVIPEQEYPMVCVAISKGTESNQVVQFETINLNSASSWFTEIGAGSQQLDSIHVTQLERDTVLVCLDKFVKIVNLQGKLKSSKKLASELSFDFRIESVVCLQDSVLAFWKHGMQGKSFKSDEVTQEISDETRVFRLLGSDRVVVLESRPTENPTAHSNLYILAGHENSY

In the case of `C=CC(=O)Nc1ccc2[nH]c(=O)n(C3CCN(Cc4ccc(-c5nc6cc[nH]c(=O)c6cc5-c5ccccc5)cc4)CC3)c2c1` [Compound 1a, N-(2-oxo-3-(1-(4-(5-oxo-3-phenyl-5,6-dihydro-1,6-naphthyridin-2-yl)benzyl)piperidin-4-yl)-2,3-dihydro-1H-benzo[d]imidazol-5-yl) acrylamide], the “phosphorylation of Akt1 substrate GSK3β” value in [1] and in data set [4] was “decreased phosphorylation” each time. In addition, the “pAkt1 (Thr308 and Ser473) level” value in data set [1] (0.01-10 μM) and in data set [4] (0.01-10 μM) was “dose-dependent decreases of pAkt1” throughout. The molecule further yielded an MTD in data set [2] of 20 mg/kg. The inhibition at 1 µM in data set [3] was found to be 37%. Also, the “phosphorylation of downstream targets S6 and 4EBP1” value in data set [5] was “decreasing phosphorylation”. Also, in data set [5] (0.001-0.1 μM), the “cellular pAkt1 levels” value is given as “reduces cellular pAkt1 levels at low nanomolar concentrations”. Moreover, the bioavailability came out at 47.7% in data set [6] (ip, 20 mg/kg) and 10.8% in data set [6] (po, 20 mg/kg). Also, the maximum plasma concentration turned out to be 1.15 µM in data set [6] (i.p., 20 mg/kg); 1.05 µM in data set [6] (i.v., 2 mg/kg); 0.62 µM in data set [6] (p.o., 20 mg/kg). Further, the “time of maximum plasma concentration” value is recorded as 45 min in data set [6] (i.p., 20 mg/kg); “immediately after injection” in data set [6] (i.v., 2 mg/kg); 15 min in data set [6] (p.o., 20 mg/kg).
Regarding `CCC(=O)Nc1ccc2[nH]c(=O)n(C3CCN(Cc4ccc(-c5nc6cc[nH]c(=O)c6cc5-c5ccccc5)cc4)CC3)c2c1` [Compound 1b, N-(2-OXO-3-(1-(4-(5-OXO-3-PHENYL-5,6-DIHYDRO-1,6-NAPHTHYRIDIN-2-YL)BENZYL)PIPERIDIN-4-YL)-2,3-DIHYDRO-1H-BENZO[D]IMIDAZOL-5-YL) PROPIONAMIDE], the “higher concentration required for half-maximum inhibition of Akt1 versus alkenyl counterpart” value in data set [7] was determined as 10 fold. In addition, the midpoint of inhibition in data set [7] (setting [16]), the IC50, lay at 7.5 ± 2 nM. For the same molecule, the Kd in [8] turned out to be 62 ± 12 nM. The “time dependence of dose-response curves” value in data set [9] is reported as “No differences were observed”.
With `C=CC(=O)Nc1cccc(-c2cn(C3CCN(Cc4ccc(-c5nc6ccccn6c5-c5ccccc5)cc4)CC3)nn2)c1` [Compound 2a, N-[3-(1-{1-[4-(3-Phenylimidazo[1,2-a]pyridin-2-yl)benzyl]piperidin-4-yl}-1H-1,2,3-triazol-4-yl)phenyl]acrylamide], the covalently modified residues entry in data set [10] is “covalently bind to Akt1 at Cys296 and Cys310”. Moreover, the kinact/KI in data set [11] was 2300 ± 300 M⁻¹ s⁻¹. For the same molecule, the IC50 in [7] and in data set [7] (setting [16]) was 372 ± 48 nM throughout. For the same molecule, in data set [8], the Kd turned out to be 795 ± 176 nM. For the same molecule, in [12], the “mass increase of Akt1 (single labeled)” value came to 572 Da.
For the molecule `CCC(=O)Nc1cccc(-c2cn(C3CCN(Cc4ccc(-c5nc6ccccn6c5-c5ccccc5)cc4)CC3)nn2)c1` [Compound 2b, N-[3-(1-{1-[4-(3-Phenylimidazo[1,2-a]pyridin-2-yl)benzyl]piperidin-4-yl}-1H-1,2,3-triazol-4-yl)phenyl]propionamide], in [7], half-maximal inhibition (IC50) required 992 ± 328 nM and the “higher concentration required for half-maximum inhibition of Akt1 versus alkenyl counterpart” value amounted to 4 fold. Further, binding in data set [8] was characterised by a dissociation constant (Kd) of 797 ± 180 nM.
Regarding `CCC(=O)Nc1cccc(C(=O)NC2CCN(Cc3ccc(-c4nc5cc[nH]c(=O)c5cc4-c4ccccc4)cc3)CC2)c1` [Compound 27], the IC50 in data set [7] (setting [16]) was 18.2 ± 13.3 nM. Binding in data set [8] was put at a Kd of 79 ± 21 nM.
Take `CN(C)C/C=C/C(=O)Nc1ccc2[nH]c(=O)n(C3CCN(Cc4ccc(-c5nc6cc[nH]c(=O)c6cc5-c5ccccc5)cc4)CC3)c2c1` [Compound 36]: in [13], the kinact is 0.00102 s⁻¹ and the kinact/KI amounted to 51000 ± 10000 M⁻¹ s⁻¹.
In the case of `N#C/C(=C\C1CC1)C(=O)Nc1cccc(C(=O)NC2CCN(Cc3ccc(-c4nc5cc[nH]c(=O)c5cc4-c4ccccc4)cc3)CC2)c1` [Compound 45], in data set [13], the kinact is 0.00182 s⁻¹ and the kinact/KI stood at 41000 ± 9000 M⁻¹ s⁻¹.
With `C=CC(=O)Nc1ccc2c(c1)n(C1CCN(Cc3ccc(-c4nc5cc[nH]c(=O)c5cc4-c4ccccc4)cc3)CC1)c(=O)n2C` [Compound 46], in data set [13], the inhibition constant Ki lay within 1 to 18.9 nM, the kinact was 0.00202 s⁻¹ and the kinact/KI came to 190000 ± 25000 M⁻¹ s⁻¹.
Turning to `C=CC(=O)Nc1ccc(C(=O)NC2CCN(Cc3ccc(-c4nc5cc[nH]c(=O)c5cc4-c4ccccc4)cc3)CC2)c(F)c1` [Compound 47], the figures for the IC50 in [14] and in data set [15] were 21.3 ± 1.8 nM and 2900 ± 137 nM, respectively.
In the same order, the values of `C=CC(=O)Nc1ccc(C(=O)NC2CCN(Cc3ccc(-c4nc5cc[nH]c(=O)c5cc4-c4ccccc4)cc3)CC2)s1` [Compound 48] are 8.1 ± 0.4 nM and 397 ± 172 nM.
With `NC1(c2ccc(-c3nc4ccn5c(=O)[nH]nc5c4cc3-c3ccccc3)cc2)CCC1` [MK-2206, reference compound], the “time dependence of dose-response curves” value in [9] is reported as “No differences were observed”.
